What was measured:
rat cortical neurons = test: trophic factor withdrawal; assay type: cell-based; details: serum-containing medium, Baicalein 10-10,000 nM, 2 days
Description: FIG. 5A—trophic factor withdrawal. Primary cortical neurons are prepared from 18-day-old rat embryos, and cultured at low cell density 1×10^6/35 mm dish, in serum containing medium with Baicalein (10-10,000 nM), and viability assayed 2 days later using a live-dead assay. […] These include trophic factor withdrawal (TFW), excitotoxicity, glucose starvation, and most importantly, in a chemical ischemia model. […] (FIG. 5A). Using a published excitotoxicity assay, Baicalein rescues about 35% of the cells (FIG. 5B).

[1] = tested on: embolic strokes in rabbits; details: RSCEM, as published in the manuscript; cited from earlier work
[2] = tested on: primary mouse cortical neurons; test: primary cortical cell glutamate excitotoxicity assay; assay type: cell-based; details: E14 mouse primary cortical neurons, 10 μM glutamate 10 min, Baicalein 0.2-5 μM, MTT 24 hr
Description: FIG. 5B—excitotoxicity assay was done with E14 mouse primary cortical neuron cultures. After 11 days of culture, cells were exposed to 10 μM glutamate for 10 min, followed by the addition of varying concentrations of Baicalein (0.2-5 μM). Cell viability was determined 24 hr later with a standard MTT assay.
Excitotoxicity cell assay: Primary cultures of cortical neurons that die due to excitotoxicity were prepared as described previously. Briefly, BALB/c mouse embryo cortices were minced and treated with 0.1% trypsin for 20 min. After centrifugation, the cells are resuspended in 827 Neurobasal medium (Invitrogen) plus 10% fetal calf serum and are dissociated by repeated pipetting through a 1 mL blue Eppendorf pipette tip. Then the cells are plated at 1×10^5 cells per well in 96-well poly-L-lysine and laminin-coated microtiter plates (Becton Dickinson, Bedford, Mass., USA) in 827 Neurobasal plus 10% fetal calf serum and 20% glial growth-conditioned medium. Two days later the medium is aspirated and replaced by serum-free 827 Neurobasal medium plus 10 μg/mL cytosine arabinoside. The cultures are used without media change 11 days after plating and are essentially free of astrocytes. They are exposed to 10 μM glutamate followed by varying concentrations of the compounds. Cell viability is determined 24 h later using […]. […]

mice = details: oral dose; cited from earlier work

Structure (SMILES): O=c1cc(-c2ccccc2)oc2cc(O)c(O)c(O)c12 [Baicalein, 5,6,7-trihydroxyflavone]
- survival of low-density cultured rat cortical neurons (rat cortical neurons): dramatically promotes the survival
- therapeutic window [1]: ≥ 60 min
- cells rescued [2]: about 35%

Structure (SMILES): O=c1c(O)c(-c2ccc(O)c(O)c2)oc2cc(O)ccc12 [Fisetin, 3,7,3′,4′-tetrahydroxy flavone]
- memory (mice): potentiates memory equally as well as rolipram
